Laboratory results: article PMC8305532, “Bufadienolides from the Skin Secretions of the Neotropical Toad Rhinella alata (Anura: Bufonidae): Antiprotozoal Activity against Trypanosoma cruzi” (Molecules, 2021)
In brackets after ≈: the same amount, converted by molar mass. Where two headings read alike, the source gives them in different places.

Columns and labels:
Vero cells = assay: Mammalian cytotoxicity, MTT assay; format: cell-based, monkey; conditions: Primates, 120 h, read-out: IC50 Vero
Method: For cytotoxicity assays, Vero cells were obtained from the American Type Culture Collection (ATCC, Manassas, VA, USA) and cultivated in 96-well plates at 37 °C under a 5% CO2 atmosphere, using RPMI-1640 medium (Sigma-Aldrich, Saint Louis, MO, USA) sterilized with 0.05% gentamicin (50 mg/mL) and supplemented with 10% FBS (fetal bovine serum; Gibco, Invitrogen, Carlsbad, CA, USA). Vero cells were allowed to adhere for 24 h prior to incubation for five days with the samples. During the treatment, DMSO was used as negative control, and samples were assayed at four different concentrations. After incubation, MTT (3-(4,5-di-methyl-thiazol-2-yl)-2,5-di-phenyl-tetra-zolium bromide) was added to each well, and absorbance was determined 4 h later at 570 nm using a color plate reader. Cytotoxicity was evaluated colorimetrically by calculating the ability of the remnant living Vero cells to reduce the pale yellow MTT into the black-purple formazan product, as described earlier. All bioassays were performed in duplicate and the IC50 values were determined employing the Data Analysis complement Wizard of Excel 2000 (Microsoft, Seattle, WA, USA).

T. cruzi trypomastigotes [1] = assay: Antiprotozoal activity against T. cruzi (β-galactosidase reporter strain Tulahuen clone C4, in infected Vero cells); format: cell-based; conditions: Trypanosoma cruzi, 120 h, read-out: IC50 T. cruzi
Method: The evaluation of the antiprotozoal activity against trypanosomes was carried out using the recombinant strain Tulahuen clone C4 of T. cruzi trypomastigotes (ATCC, Manassas, VA, USA). This strain expresses the β-galactosidase enzyme used as a reporter to assess the viability of the trypanosomatid. The parasites were maintained at 37 °C under a 5% CO2 atmosphere in RPMI-1640 culture medium with L-glutamine, 4-(2-Hydroxyethyl)-piperazine-1-ethanesulfonic acid (HEPES) buffer, NaHCO3, 10% FBS, and 0.05% gentamicin (50 mg/mL) as supplements. Vero cells were cultured for 24 h, and one day prior to the experiment, the cells were infected with trypomastigotes. After additional 24 h of infection, bufadienolides were dissolved in DMSO and tested at four different concentrations by duplicate for five days. Benznidazole was used as the positive control. To determine antitrypanosomal activity, 25 µL of chlorophenol-red-β-D-galactopyranoside (Roche Applied Science) (900 µM) were added to each well and allowed to react with the β-galactosidase of the remaining living parasites for 4.5 h. Absorbance was calculated at 570 nm using a microtiter plate reader (Sinergy HT, BioTek Instruments Inc, Winooski, VT, USA).
(§1) All antitrypanosomal and anticancer assays represent independent analysis. The data are presented as the inhibitory concentration (IC50) ± standard error (SE). The statistical analysis for the IC50 values was carried out employing the Data Analysis complement Wizard of Excel 2000 by adjusting the dose-response curve to a sigmoidal model (Microsoft, Seattle, WA, USA).

SF-268 = assay: Anticancer assay (SRB), SF-268; format: cell-based; conditions: human central nervous system cancer line, 48 h, IC50 ± standard error
Method: (§2) MCF-7, NCI-H460, and SF-268 cancer cells lines were obtained from the American Type Culture Collection (ATCC, Manassas, VA, USA) and cultivated in 96-well plates at 37 °C under a 5% CO2 atmosphere using RPMI-1640 medium (Sigma-Aldrich, USA) sterilized with 0.05% gentamicin (50 mg/mL), supplemented with 10% FBS (fetal bovine serum; Gibco, Invitrogen, Carlsbad, CA, USA), and allowed to adhere for 24 h. After incubation, cancer cells were treated with bufadienolides dissolved in DMSO at five different concentrations and analyzed by duplicate for 48 h. RPMI without cells was used as color control and doxorubicin was used as inhibition control. After treatment, cells were fixed with 25% tricholoroacetic acid (TCA) for 60 min, air dried, and stained with sulforhodamine-B (SRB). Washes with acetic acid at 1% were carried out to eliminate excess of SRB. Tris was added to dissolve the bound SRB. The plate was shaken and absorbance was read at 515 nm using a color plate reader.
as §1

NCI-H460 = assay: Anticancer assay (SRB), NCI-H460; format: cell-based; conditions: human lung cancer line, 48 h, IC50 ± standard error
Method: as §2, §1

MCF-7 = assay: Anticancer assay (SRB), MCF-7; format: cell-based; conditions: MCF7, human breast cancer line, 48 h, IC50 ± standard error
Method: as §2, §1

[2] = system: (Na+-K+) ATPase from T. cruzi; design: method as in PMID 16797482; conditions: cloned and characterized enzyme; cited from earlier work
T. cruzi trypomastigotes [3] = conditions: cited from earlier work
liver cancer cells = system: liver cancer cells; design: method as in PMID 20839128; conditions: concentration at which growth inhibition was induced; cited from earlier work
[4] = epithelial cells from monkey kidney (ATCC), five days incubation, MTT, IC50 ± standard error
[5] = trypomastigotes, five days treatment, IC50 ± standard error

## C[C@]12CC[C@H](OC(=O)CCCCCCC(=O)NC(CCCNC(=N)N)C(=O)O)CC1CCC1C2CC[C@]2(C)[C@@H](c3ccc(=O)oc3)[C@@H](O)C[C@]12O (stereo partly drawn) [Compound 5, 16β-hydroxy-desacetyl-bufotalin-3-suberoyl-arginine ester]
Vero cells
  IC50: 810 ± 350 nM
T. cruzi trypomastigotes [1]
  IC50: 6900 ± 950 nM

## CC(=O)O[C@H]1C[C@]2(O)[C@@H]3CC[C@@H]4C[C@@H](O)CC[C@]4(C)[C@H]3CC[C@]2(C)[C@H]1c1ccc(=O)oc1 [Compound 2, Bufotalin]
Vero cells; [4]
  IC50: 46000 ± 6290 nM
SF-268
  IC50: 20500 nM
T. cruzi trypomastigotes [1]; [5]
  IC50: 19600 ± 3380 nM
NCI-H460
  IC50: 229 ± 0.08 nM
MCF-7
  IC50: 94 ± 0.03 nM

## O=C(Cn1ccnc1[N+](=O)[O-])NCc1ccccc1 [benznidazole, reference compound]
T. cruzi trypomastigotes [1]; [5]
  IC50: 2730 ± 160 nM

## COc1cccc2c1C(=O)c1c(O)c3c(c(O)c1C2=O)C[C@@](O)(C(=O)CO)C[C@@H]3O[C@H]1C[C@H](N)[C@H](O)[C@H](C)O1 [doxorubicin, reference compound]
Vero cells; [4]
  IC50: 230 ± 40 nM
SF-268
  IC50: 610 ± 57 nM
NCI-H460
  IC50: 59 ± 5.06 nM
MCF-7
  IC50: 76 ± 3.01 nM

## C[C@@H]1O[C@@H](O[C@H]2C[C@@H](O)[C@]3(CO)[C@H]4[C@H](O)C[C@]5(C)[C@@H](C6=CC(=O)OC6)CC[C@]5(O)[C@@H]4CC[C@]3(O)C2)[C@H](O)[C@H](O)[C@H]1O [ouabain]
[2]
  inhibition of enzymatic activity of T. cruzi (Na+-K+) ATPase: not inhibited

## CC(=O)O[C@H]1[C@H]2O[C@]23[C@@H]2CC[C@@H]4C[C@@H](OC(=O)CCCCCCC(=O)NC(CCCNC(=N)N)C(=O)O)CC[C@]4(C)[C@H]2CC[C@]3(C)[C@H]1c1ccc(=O)oc1 (some centres unmarked) [Compound 9, Cinobufagin-3-suberoyl-arginine ester]
Vero cells
  IC50: 250 ± 80 nM
T. cruzi trypomastigotes [1]
  IC50: 19000 ± 5730 nM

## C[C@]12CC[C@H](O)C[C@@]1(O)CC[C@@H]1[C@@H]2CC[C@]2(C)[C@@H](c3ccc(=O)oc3)CC[C@]12O [telocinobufagin]
T. cruzi trypomastigotes [3]
  IC50 against T. cruzi trypomastigotes: > 200 µg/mL

## CC(=O)O[C@H]1[C@H]2O[C@]23[C@@H]2CC[C@@H]4C[C@@H](OC(=O)CCCCCC(=O)NC(CCCNC(=N)N)C(=O)O)CC[C@]4(C)[C@H]2CC[C@]3(C)[C@H]1c1ccc(=O)oc1 (some centres unmarked) [Compound 8, Cinobufagin-3-pimeloyl-arginine ester]
Vero cells
  IC50: 720 ± 310 nM
T. cruzi trypomastigotes [1]
  IC50: 14700 ± 1800 nM

## CC(=O)O[C@H]1[C@H]2O[C@]23[C@@H]2CC[C@@H]4C[C@@H](O)CC[C@]4(C)[C@H]2CC[C@]3(C)[C@H]1c1ccc(=O)oc1 [Compound 10, Cinobufagin]
Vero cells; [4]
  IC50: 54100 ± 4730 nM
SF-268
  IC50: 4680 nM
T. cruzi trypomastigotes [1]; [5]
  IC50: 29000 ± 2570 nM
NCI-H460
  IC50: 14 ± 0.01 nM
MCF-7
  IC50: 9 ± 0.01 nM

## C[C@]12CC[C@H](OC(=O)CCCCCC(=O)NC(CCCNC(=N)N)C(=O)O)CC1CCC1C2CC[C@]2(C)[C@@H](c3ccc(=O)oc3)[C@@H](O)C[C@]12O (stereo partly drawn) [Compound 3, 16β-hydroxy-desacetyl-bufotalin-3-pimeloyl-arginine ester]
Vero cells
  IC50: 240 ± 200 nM
T. cruzi trypomastigotes [1]
  IC50: 8700 ± 1250 nM

## CC(=O)O[C@H]1C[C@]2(O)[C@@H]3CC[C@@H]4C[C@@H](OC(=O)CCCCCC(=O)NC(CCCNC(=N)N)C(=O)O)CC[C@]4(C)[C@H]3CC[C@]2(C)[C@H]1c1ccc(=O)oc1 (some centres unmarked) [Compound 4, Bufotalin-3-pimeloyl-arginine ester]
Vero cells
  IC50: 170 ± 90 nM
Liver cancer cells
  growth inhibition against liver cancer cells: 7.24 µM
T. cruzi trypomastigotes [1]
  IC50: 4600 ± 1750 nM

## CC12CCC(OC(=O)CCCCC(=O)NC(CCCNC(=N)N)C(=O)O)CC1CCC1C2CCC2(C)C(c3ccc(=O)oc3)C(O)CC12O (stereo not drawn) [Compound 1, 16β-hydroxy-desacetyl-bufotalin-3-adipoyl-arginine ester]
Vero cells
  IC50: 1890 ± 630 nM
T. cruzi trypomastigotes [1]
  IC50: 8000 ± 750 nM

## CC(=O)O[C@H]1[C@H]2O[C@]23[C@@H]2CC[C@@H]4C[C@@H](OC(=O)CCCCC(=O)NC(CCCNC(=N)N)C(=O)O)CC[C@]4(C)[C@H]2CC[C@]3(C)[C@H]1c1ccc(=O)oc1 (some centres unmarked) [Compound 7, Cinobufagin-3-adipoyl-arginine ester]
Vero cells
  IC50: 3600 ± 1640 nM
T. cruzi trypomastigotes [1]
  IC50: 16700 ± 2930 nM

## CC(=O)O[C@H]1C[C@]2(O)[C@@H]3CC[C@@H]4C[C@@H](OC(=O)CCCCCCC(=O)NC(CCCNC(=N)N)C(=O)O)CC[C@]4(C)[C@H]3CC[C@]2(C)[C@H]1c1ccc(=O)oc1 (some centres unmarked) [Compound 6, Bufotalin-3-suberoyl-arginine ester]
Vero cells
  IC50: 340 ± 200 nM
T. cruzi trypomastigotes [1]
  IC50: 4900 ± 1000 nM

## C[C@]12CC[C@H]3[C@@H](CC[C@]4(O)C[C@@H](O)CC[C@]34C=O)[C@@]1(O)CC[C@@H]2c1ccc(=O)oc1 [hellebrigenin]
T. cruzi trypomastigotes [3]; trypomastigotes, ref Tempone et al. (2008) [13]
  IC50 against T. cruzi trypomastigotes: 91.7 µg/mL (≈ 220 µM)
